Assays:
[1] = biological target: T1, dopamine-β-hydroxylase (DBH) (Bos taurus, UniProt P15101); test: DBH inhibition kinetics: conversion of tyramine to octopamine, HPLC with fluorometric quantitation; assay type: biochemical
T1 sequence (P15101 1-610): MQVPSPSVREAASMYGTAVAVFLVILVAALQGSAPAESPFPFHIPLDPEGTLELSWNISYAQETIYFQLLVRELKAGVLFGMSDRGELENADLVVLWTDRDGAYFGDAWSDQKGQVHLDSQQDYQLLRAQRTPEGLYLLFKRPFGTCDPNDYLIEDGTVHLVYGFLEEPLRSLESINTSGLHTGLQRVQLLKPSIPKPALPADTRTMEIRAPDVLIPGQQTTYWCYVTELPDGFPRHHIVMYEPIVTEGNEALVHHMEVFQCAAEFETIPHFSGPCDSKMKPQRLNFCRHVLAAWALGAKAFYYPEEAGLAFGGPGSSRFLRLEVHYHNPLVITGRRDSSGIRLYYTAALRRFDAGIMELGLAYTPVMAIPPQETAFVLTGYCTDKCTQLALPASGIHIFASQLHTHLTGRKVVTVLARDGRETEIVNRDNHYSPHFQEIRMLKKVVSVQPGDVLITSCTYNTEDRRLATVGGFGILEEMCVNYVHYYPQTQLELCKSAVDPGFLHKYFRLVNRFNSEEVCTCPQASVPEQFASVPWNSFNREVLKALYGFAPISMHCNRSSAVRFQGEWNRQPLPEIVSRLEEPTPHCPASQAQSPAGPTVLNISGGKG
Text: The DBH inhibitory properties of the compounds of this invention can also readily be determined in vitro by standard and well known procedures for assaying the conversion of tyramine to octopamine in the presence of DBH, such as the procedure set forth by Feilchenfeld, N. B., Richter, H. W. and Waddell, W. H. in "Time-Resolved Assay of Dopamine Beta Hydroxylase Activity Utilizing High-Pressure Liquid Chromatography", Analyt. Biochem., 122, 124-128 (1982). Determination of the kinetics of DBH inhibition is exemplified by a procedure where the enzyme-assisted conversion of tyramine to octopamine is determined by incubating varying concentrations of test compound with constant concentrations of substrate, enzyme (DBH), molecular oxygen, an electron donor such as ascorbate and the necessary cofactors for the enzyme at optimal temperature and pH. After incubation, the product is separated out by high-performance liquid chromatography and quantitated fluorometrically, from which an inhibition constant (ki) can readily be calculated.

[2] = biological target: T1, dopamine-β-hydroxylase (DBH); test: Time-dependent DBH inhibitory activity in vitro (oxygen uptake, tyramine as substrate); assay type: biochemical
Description: Since DBH is a major enzyme in the synthetic pathway of norepinephrine (NE), the presence of a DBH inhibitor would act to decrease the amount of NE produced, and thereby have an antihypertensive effect. The DBH inhibitory properties of the compounds of this invention can readily be determined by standard and well-known procedures. […] The test compound is added at the desired concentration, and the system is incubated. Aliquots are taken at different time intervals and DBH activity is measured using tyramine as the substrate. The reaction is followed by measuring oxygen uptake using a polarographic electrode and an oxygen monitor by the method of S. May, et al., J. Biol. Chem., 256, 2258 (1981).
t 1/2: time required for 50% log activity remaining

[3] = system: spontaneously hypertensive rats; test: Antihypertensive activity in vivo: continuous recording of arterial blood pressure in unanesthetized spontaneously hypertensive rats; parameters: Max Change MBP: unit not given here; conditions: for % Lowering MBP / Max Change MBP: dosed as tosylate salt, MBP = mean blood pressure
Description: The ability of the compounds of this invention to lower blood pressure can be determined in vivo by using standard and well-known procedures such as those employed in the continuous recording of arterial blood pressure in conscious animals. For instance, test compounds are administered intraperitoneally (ip) to unanesthetized, spontaneously hypertensive rats and the arterial blood pressure is monitored continuously. In tests utilizing the above described procedure, the antihypertensive effects of the test compounds are readily apparent as indicated by the degree of lowering of mean blood pressure (MBP) noted in Table II.
*Dose was administered as mg/kg tosylate salt.

`NCCC1SCCS1` [1,3-Dithiolane-2-ethanamine] was tested, and the “DBH inhibitory activity (in words)” value ([1]; judged from ki) was “potent activity as a DBH inhibitor” and the Ki ([1]; tyramine to octopamine conversion, read-out: ki (inhibition constant), DBH) was 11 µM.
For `NC/C=C1/CCCS1` [(Z)-2-(Dihydro-2(3H)-thienylidene)ethanamine], the “Activity in the time-dependent DBH inhibition assay (in words)” value [2] was “not active”, the “% Lowering MBP” value ([3]; 100 mg/kg ip) was 28.6% and the “Max Change MBP” value ([3]; 100 mg/kg ip) was -54 +/-21. The “In vivo antihypertensive activity (in words)” value ([3]; ip, spontaneously hypertensive rats) was “active as an in vivo antihypertensive agent”.
In the case of `NCC=C1SCCS1` [Compound 1 (Table I), 2-(1,3-dithiolan-2-ylidene)ethanamine], the “Activity in the time-dependent DBH inhibition assay (in words)” value [2] is reported as “most active compound of the compounds tested”, the “% Lowering MBP” value ([3]; 200 mg/kg ip) is reported as 21.7% and the “Max Change MBP” value ([3]; 200 mg/kg ip) is reported as -39 +/-13.
For `CC(N)C=C1SCCS1` (stereo not shown) [Compound 3 (Table I), 1-(1,3-dithiolan-2-ylidene)-2-propanamine], the “% Lowering MBP” value ([3]; 200 mg/kg ip) was 17.3% and the “Max Change MBP” value ([3]; 200 mg/kg ip) was -30 +/-13.
With `NC/C=C1\CCCS1` [Compound 4 (Table I), (E)-2-(dihydro-2(3H)-thienylidene)ethanamine] the “% Lowering MBP” value ([3]; 100 mg/kg ip) was 30.0% and the “Max Change MBP” value ([3]; 100 mg/kg ip) was -55 +/-22.

From US4970228A, “Novel aminoalkyl-substituted heterocyclic sulfur compounds” (Merrell Dow Pharmaceuticals, priority 1989, dated 1990)
